Measurements reported in patent US10126316B2, “Systems and methods for the measurement of tacrolimus in oral fluids by liquid chromatography tandem mass spectrometry” (Rhode Island Council on Postsecondary Education, Statutory …, priority 2016, dated 2018).

What was measured:
[1] = cited from earlier work
[2] = Tacrolimus concentration in oral fluid and whole blood of kidney transplant recipients by LC-MS/MS (Example 1 patient samples); assay type: in vivo, human
Protocol: The chromatographic conditions were optimized and the gradient elution described here provided the best separation of TAC and IS from suppressing phospholipid ions. Chromatographic separation was achieved using a mobile phase which consisted of water containing 2 mM ammonium acetate/0.1% (v/v) formic acid (solvent A); and MeOH containing 2 mM ammonium acetate/0.1% (v/v) formic acid (solvent B). The mobile phase was delivered at 0.4 mL/min flow rate. The run cycle started at 50% solvent (B) and increased gradually to 98% over 0.5 min and was maintained at this level until 1.8 min. To re-equilibrate the column for the next run, solvent (B) decreased within 0.1 min to 50% and remained at 50% until the end of the run at 2.2 minutes. The diversion valve was set to deliver the first 0.70 min and from 1.20 min until the end of each run to waste. The elution time of TAC and IS was 1.0 min.
Mass spectrometry detection and quantification of TAC and ASC was performed in positive electrospray ionization (ESI) and multiple reaction monitoring (MRM) modes. Intellistart tool was used to obtain initial mass spectrometry parameters in low mass resolution analysis mode followed by manual tuning to achieve highest possible sensitivity. Final mass spectrometry parameters were as following: collision energy (CE)=22 and 20 for ASC and TAC respectively, cone voltage (CV)=28, capillary voltage (kV)=1.50, source temperature (° C.)=150, cone gas flow (L/hr)=25, desolvation gas flow (L/hr)=1000, and collision gas flow (mL/min)=0.15. Ammonium adducts [M+NH4]^+ were selected as precursors for MRM with transitions (m/z, Q1→Q3) of (m/z, 809.30→756.30) and (m/z, 821.30→768.35) for ASC and TAC, respectively.
Study protocols were approved by Institutional Review Board at Rhode Island Hospital (Providence, R.I.). After giving informed consent, kidney transplant recipients attending kidney transplant clinics were recruited. […] All blood and OF samples were kept on ice until transferred to the Biomedical and Pharmaceutical Sciences (BPS) department at University of Rhode Island and stored at −80° C. until analyzed. […]

[3] = Stability studies of TAC in oral fluid QC samples; assay type: physicochemical, human; conditions: for Stability, % Accuracy, Bench top / Stability, % Accuracy, Short-term 1 weeks / Stability, % Accuracy, Short-term 4 weeks / Stability, % Accuracy, Freeze & thaw / Stability, % Accuracy, Auto-sampler 24 hrs / Stability, % Accuracy, Auto-sampler 48 hrs: N = 3; for Stability, % Accuracy, Short-term 1 weeks / Stability, % Accuracy, Short-term 4 weeks: storage at −80° C.; for Stability, % Accuracy, Freeze & thaw: three freeze and thaw cycles; for Stability, % Accuracy, Auto-sampler 24 hrs / Stability, % Accuracy, Auto-sampler 48 hrs: extracted
Protocol: Stability studies were performed by measuring TAC concentrations in QC1 and QC3, in three replicates. Freeze and thaw (after three freeze and thaw cycles), bench-top, auto-sampler (by re-injecting one of validation batch after it was left in the auto-sampler for 24 h and 48 h), and short-term stability up to one month were investigated.

[4] = Tacrolimus concentration in paired oral fluid and blood samples, all samples of Example 2; assay type: in vivo, human
Excerpt: Study population: Samples included in this study were collected during two clinical studies from stable kidney transplant recipients. Protocol for each clinical study was approved by the Institutional Review Board of Rhode Island Hospital (Providence, R.I.). On the study day, all patients underwent a physical examination by the study physician and were asked to sign an informed consent prior to sample collection. All patients were on a triple immunosuppressant regimen that included tacrolimus, prednisone, and mycophenolic acid. All blood and OF samples were kept on dry ice until transfer to the Clinical Pharmacokinetics Research Laboratory at the University of Rhode Island and subsequent storage at −80° C. until further analysis.
Upon thawing saliva samples, an aliquot of saliva was weighed with an analytical balance and the weight was recorded to establish the drug concentration as pg/mg weight. Moreover, the pH of saliva was measured by an Orion STAR A111 pH meter equipped with Micro Electrode from Thermo Scientific (Waltham, Mass., USA). To assess and quantify possible blood contamination of OF, a transferrin kit from Salimetrics LLC (State College, Pa., USA) was used (the validated assay range is ≤6.6 mg/dL). Transferrin (TRNs) is a plasma protein (Mw=76,000) that is used as a biomarker for presence of blood in OF. Transferrin quantification was performed using SpectraMax M5e Microplate Reader (Sunnyvale, Calif., USA).
(§1) Sample extraction was preformed mixing 200 μL of the blood sample with 800 μL of precipitating solution [ZnSO4 (17.28 g/L) in water and methanol (30:70, v/v) containing 100 ng/mL ascomycin as internal standard]. After vortex mixing, samples were centrifuged for 10 min at 13,000 rpm.
(§2) The concentration of tacrolimus in OF was measured using a validated LC-MS/MS method. […] TAC was eluted by gradient elution with 2 mM ammonium acetate/0.1 formic acid in water (mobile phase A) and in methanol (mobile phase B) at 0.4 mL/min flow rate. Initial mobile phase comprised of 50% solvent B, increased gradually to 98% over 0.5 min and maintained at this level until 1.8 min. Then mobile phase was returned to initial conditions within 10 s and maintained until the end of the run at 2.2 min to recondition the column for the next run. The elution time of TAC and internal standard was 1.0 min.
(§3) A simple sample preparation and extraction procedure was followed. Briefly, 50 μL of homogenized OF sample was added to 100 μL of ACN precipitating solvent containing internal standard (ascomycin, 600 ng/L). After vortex mixing for 10 s, the mixture was centrifuged at 10,000 g for 5 min at 20° C. The supernatant was then transferred to an auto-sampler vial, and 10 μL was injected onto LC-MS/MS. The dynamic range of the assay was 30-4,800 pg/mL. […] The lower limit of quantification (LLOQ) for the assay was set at […] Acceptance criteria for quality controls (QCs) included in the assay was accuracy between 85-115% and CV <15%. Selectivity was assessed by inspecting the presence of noise or peaks in chromatograms blank OF samples injections (from 6 donors) and a comparison with LLOQ chromatogram.

[5] = Study A: 12-hour profile of tacrolimus in oral fluid and blood; assay type: in vivo, human; conditions: for OF/blood Conc. (*100) / Tacrolimus Conc. in OF / Tacrolimus blood Conc.: geometric mean (95% CI)
Protocol: Study A. Characterization of 12-hour profile of tacrolimus in OFs: The objective of this study was to obtain parallel blood and saliva samples for 12 h after the morning dose tacrolimus. On the morning of the study day, a venous blood sample (about 4 mL) was collected in ethylenediaminetetraacetic acid (EDTA) coated tubes. Simultaneously, OF samples were collected by passive drool (resting) in a siliconized plastic cup. After the administration of morning dose of immunosuppressive agents including tacrolimus, serial samples were collected at certain time points post-dose for 12-hour. All patients fasted overnight but prior to the start of sample collection, took a protein bar with their morning medication together with a glass of water. Thus, the samples obtained in this study was regarded as samples collected at non-fasting state.
as §1, §2, §3

[6] = Study B: effect of oral fluid sample collection method on tacrolimus concentration; assay type: in vivo, human; conditions: geometric mean (95% CI)
Protocol: Study B. Characterization of the effect of OF sample collection method: Blood samples were collected at pre-dose (C0) and then at two-hour after dose (C2). Patients have arrived at the hospital after an overnight fast and were remained fasted during collection of C0 samples. Matching OF samples were collected within ±5 min from blood sample time by passive drool (resting sample), after mouth rinsing with water (rinsed sample), and immediately after taking a sour candy to stimulate saliva production (stimulated sample). For the following samples, patients were asked to place a small piece of a commercial candy containing citric and tartaric acids (Sour Patch Kids, Mondelēz International, East Hanover, N.J., USA) in their mouth for 10 s with continues tongue movement. After C0 samples collection, patients were given a voucher for breakfast and were asked to report back to the study location shortly before sample collection at two-hour after dose (C2). The same process of blood and corresponding OF sample collection was followed at this time. The C2 samples were regarded as fed state.
as §1, §2, §3

## C=CC[C@@H]1/C=C(\C)C[C@H](C)C[C@H](OC)[C@H]2O[C@@](O)(C(=O)C(=O)N3CCCC[C@H]3C(=O)O[C@H](/C(C)=C/[C@@H]3CC[C@@H](O)[C@H](OC)C3)[C@H](C)[C@@H](O)CC1=O)[C@H](C)C[C@@H]2OC.O [Tacrolimus]
[1]
  Fraction of tacrolimus distributed into red blood cells: About 85%
  Fraction of total TAC in blood present as free (unbound) form: 1%
[2]; 181 OF samples, stable transplant recipients
  Concentration of TAC in OF (range): 0.0117 to 2.8644 ng/mL
[2]; one of 181 OF samples
  Calculated concentration of the one OF sample lower than LLOQ: around 8.5 pg/mL
[2]; stable transplant recipients
  Concentration of TAC in whole blood (range): 1.7 to 46.1 ng/mL
[3]; QC1 (30 pg/mL) in OF
  Stability, % Accuracy, Bench top: 111.1%
  Stability, % Accuracy, Short-term 1 weeks: 98.4%
  Stability, % Accuracy, Short-term 4 weeks: 100.8%
  Stability, % Accuracy, Freeze & thaw: 108.2%
[3]; QC1 (30 pg/mL)
  Stability, % Accuracy, Auto-sampler 24 hrs: 105.3%
  Stability, % Accuracy, Auto-sampler 48 hrs: 102.5%
[3]; QC3 (1200 pg/mL) in OF
  Stability, % Accuracy, Bench top: 98.8%
  Stability, % Accuracy, Short-term 1 weeks: 98.9%
  Stability, % Accuracy, Short-term 4 weeks: 102.9%
  Stability, % Accuracy, Freeze & thaw: 111.9%
[3]; QC3 (1200 pg/mL)
  Stability, % Accuracy, Auto-sampler 24 hrs: 102.2%
  Stability, % Accuracy, Auto-sampler 48 hrs: 105.6%
[3]; auto-sampler, up to 48 h
  Stability in extracted matrix: stable in extracted matrix for up to 48 h
[4]; 276 paired samples
  Tacrolimus concentration in blood (mean±SD): 7.4 ± 5 ng/mL
  Tacrolimus concentration in blood (median): 5.9 ng/mL
[4]; homogenized OFs
  Concentration of tacrolimus in OFs (mean±SD): 0.744 ± 0.666 ng/mL
  Concentration of tacrolimus in OFs (median): 0.505 ng/mL
[4]; in vivo
  Concentration of tacrolimus corrected for the weight of homogenized OF (mean±SD): 540 ± 485 pg/mg
  Concentration of tacrolimus corrected for the weight of homogenized OF (median): 367 pg/mg
[5]; 80 paired samples, 10 patients, fed state
  Concentration of TAC in blood: 5.7 ± 2.6 ng/mL
[5]; 80 paired samples, 10 patients, passive drool, fed state
  Concentration of TAC in oral fluids: 0.885 ± 0.65 ng/mL
[5]; All other times
  OF/blood Conc. (*100): 14 (11, 16)
  Tacrolimus Conc. in OF: 783 (627, 878) pg/mL
  Tacrolimus blood Conc.: 5.5 (5.0, 5.9) ng/mL
[5]; Peak (C2)
  OF/blood Conc. (*100): 11 (7, 16)
  Tacrolimus Conc. in OF: 573 (411, 599) pg/mL
  Tacrolimus blood Conc.: 5.5 (4.6, 6.5) ng/mL
[5]; Trough (C0, incl. C12)
  OF/blood Conc. (*100): 11 (7, 18)
  Tacrolimus Conc. in OF: 430 (272, 680) pg/mL
  Tacrolimus blood Conc.: 3.8 (3.1, 4.7) ng/mL
[6]; C0 (fasted), Resting
  OF/blood Conc. (*100): 19 (14, 24)
  Tacrolimus Conc. in OF: 1003 (747, 1348) pg/mL
  Tacrolimus blood Conc.: 5.5 (4.7, 6.3) ng/mL
[6]; C0 (fasted), Rinsed
  OF/blood Conc. (*100): 11 (9, 13)
  Tacrolimus Conc. in OF: 584 (436, 782) pg/mL
  Tacrolimus blood Conc.: 5.4 (4.7, 6.3) ng/mL
[6]; C0 (fasted), Stimulated
  OF/blood Conc. (*100): 3 (2, 4)
  Tacrolimus Conc. in OF: 164 (119, 226) pg/mL
  Tacrolimus blood Conc.: 5.5 (4.8, 6.2) ng/mL
[6]; C2 (fed), Resting
  OF/blood Conc. (*100): 7 (5, 9)
  Tacrolimus Conc. in OF: 635 (437, 923) pg/mL
  Tacrolimus blood Conc.: 9.4 (7.6, 11.7) ng/mL
[6]; C2 (fed), Rinsed
  OF/blood Conc. (*100): 5 (4, 7)
  Tacrolimus Conc. in OF: 468 (347, 630) pg/mL
  Tacrolimus blood Conc.: 9.0 (7.4, 11.0) ng/mL
[6]; C2 (fed), Stimulated
  OF/blood Conc. (*100): 3 (2, 4)
  Tacrolimus Conc. in OF: 235 (167, 330) pg/mL
  Tacrolimus blood Conc.: 8.8 (7.6, 10.2) ng/mL
